Read-outs that look alike come from different tables or passages of the source.
Columns and labels:
[1] = tested on: G2/M arrest (functional indicator of interaction with mammalian tubulin); assay: mammalian G2/M arrest assay; assay type: cell-based; conditions: Table 1; read-out: G2/M arrest IC50
Method: (§1) The first three analogs from the benzimidazole 5-carboxylic acid, namely 7a (from 6-aminobenzoxaborole), 8a (from 6-aminomethyl-3,3-dimethylbenzoxaborole), and 8b (from 3-aminomethylbenzoxaborole), were prepared and tested in an Onchocerca volvulus L3 larval molting assay[34],[35] and a mammalian G2/M arrest assay[36] to evaluate antifilarial activity and selectivity, respectively (Table 1). O. volvulus is the causative agent of river blindness, and the L3 molting assay is the only widely available and reproducible assay of this filariid, the target of novel macrofilaricidal drugs.[34],[35] Other animal models (e.g., Brugia in gerbils) recapitulate aspects of lymphatic filariasis and are also used as surrogate screens for O. volvulus infections. Of the three compounds tested, 8a emerged as the most attractive compound on the basis of potency and selectivity.
Similarly, changing the point of attachment on the benzoxaborole core from 6- to 5- to afford 8d was also accompanied by increased potency in both the O. volvulus and G2/M arrest assays.

[2] = tested on: Onchocerca volvulus L3 larvae; assay: Onchocerca volvulus L3 larval molting assay; assay type: cell-based; conditions: L3 molting assay, Table 1, read-out: O. volvulus IC50
Method: as §1
(§2) Plates were incubated at 37 °C in a 5% CO2 incubator for 6 days, then molting was assessed visually using an inverted microscope. Molting was determined in each well by counting the presence of fourth stage larvae (L4s) and empty casts of L3s.
(§3) The percent inhibition of molting was calculated based on the number of treated larvae that were able to molt in comparison to the number of control larvae that had successfully molted. IC50 values were calculated using GraphPad Prism v6.0
(§4) (http://www.graphpad.com). See Bullman et al., PLoS Negl. Trop.
(§5) Adult Brugia malayi transplantation in vivo model procedure.
(§6) Gerbils (Meriones unguiculatus) were infected by transplantation of 10 male and 10 female adult Brugia malayi into the peritoneal cavity. Gerbils were acclimated for 7 days prior to treatment. Animals were dosed based on their body weight prior to each dosing. Animals were administered their doses at the same time each day and receive standard rodent laboratory diet and water ad libitum. Gerbils were humanely euthanized at the conclusion of each study. Peritoneal counts of male and female adult B. malayi and visual condition of the peritoneum were recorded.
Brugia pahangi L3 injection in vivo model procedure 8.
Male gerbils (Meriones unguiculatus) approximately 6 weeks of age (50-60 g) were purchased from Charles Rivers (USA, Kingston K62 Gerbils) and infected by intraperitoneal injection with 200 Brugia pahangi third-stage larvae (L3) per animal
(Filariatech, Inc., Athens, GA). Gerbils were housed with no more than 5 animals per cage and maintained 9 months prior to treatment. All gerbils were dosed in accordance with their body weight determined prior to each dosing. Animals were […]

B. malayi/pahangi worms = assay: ex vivo B. malayi/pahangi assay; assay type: cell-based; conditions: short (<7 days) exposure of worms
[3] = MDR1-MDCK monolayer permeability assay; assay type: in vitro ADME; conditions: dog
Method: (§7) We characterized the in vitro ADME properties of 8a in preparation for evaluation of this compound in our primary in vivo model in gerbils. […] We were pleased to find that 8a was able to kill 100% of both male and female worms in the gerbil peritoneum when dosed subcutaneously at 100 mg/kg/day for 14 days as a suspension in a nonsolubilizing HEC/Tween vehicle. […] The subsequent assessment of the pharmacokinetics of 8a from these two dosing paradigms provided an interesting observation that we believe to be important in understanding the PK–PD requirements for achieving efficacy in this animal model. […] We had made the same observation in a positive control group using flubendazole at a subcutaneous dose of 10 mg/kg/day for 5 days in the nonsolubilizing HEC/Tween vehicle, namely, that plasma levels of flubendazole were maintained above the in vitro IC50 (4 nM) for over 42 days, consistent with data reported in the literature.[43] […] We next examined 8a in two additional in vivo models, the first where L3 B. pahangi larvae were injected into the peritoneum of gerbils and allowed to develop into adult worms[45] and a second where gerbils were naturally infected by the filarial nematode Litomosoides sigmodontis.[46],[47] In both of these models, 8a was administered subcutaneously at 100 mg/kg for 14 days or orally at 100 mg/kg for 28 days as a suspension. […] Additionally, when plasma obtained from treated animals at necropsy was analyzed for 8a, we observed an outcome similar to that observed in the adult implantation model, e.g., that measurable levels were present at this time point in the subcutaneous-dosed groups but not in the orally dosed groups, weeks after administration of the drug. In a final L. sigmodontis experiment with 8a, we dosed the compound subcutaneously at 300 mg/kg for 7 days as a suspension.

MDR1-MDCK monolayer = MDR1-MDCK monolayer permeability assay; assay type: in vitro ADME; conditions: dog
Method: as §7

Brugia pahangi = Brugia pahangi L3 injection in vivo model in gerbils; conditions: B. pahangi, necropsy day 63, QD
Method: as §7, §2, §3, §4, §5, §6
Brugia pahangi L3 injection in vivo model procedure 8. […]
(Filariatech, Inc., Athens, GA). […] All gerbils were dosed in accordance with their body weight determined prior to each dosing. […]
The adult Brugia worms were recovered by opening the body cavity and washing the peritoneal cavity with 100 mL of phosphate buffered saline. Male and female worms were counted using a […]

[4] = Metabolic stability in gerbil microsomes; assay type: in vitro ADME
Method: We characterized the in vitro ADME properties of 8a in preparation for evaluation of this compound in our primary in vivo model in gerbils. […] We were pleased to find that 8a was able to kill 100% of both male and female worms in the gerbil peritoneum when dosed subcutaneously at 100 mg/kg/day for 14 days as a suspension in a nonsolubilizing HEC/Tween vehicle. […] The subsequent assessment of the pharmacokinetics of 8a from these two dosing paradigms provided an interesting observation that we believe to be important in understanding the PK–PD requirements for achieving efficacy in this animal model. […] We had made the same observation in a positive control group using flubendazole at a subcutaneous dose of 10 mg/kg/day for 5 days in the nonsolubilizing HEC/Tween vehicle, namely, that plasma levels of flubendazole were maintained above the in vitro IC50 (4 nM) for over 42 days, consistent with data reported in the literature.[43] […] Additionally, when plasma obtained from treated animals at necropsy was analyzed for 8a, we observed an outcome similar to that observed in the adult implantation model, e.g., that measurable levels were present at this time point in the subcutaneous-dosed groups but not in the orally dosed groups, weeks after administration of the drug. […]

rat whole embryo culture = tested on: rat whole embryo culture; set-up: method as in PMID 23287076, PMID 24994687; conditions: cited from earlier work
micronucleus [5] = tested on: micronucleus; set-up: method as in PMID 26443851; conditions: in vitro; cited from earlier work
micronucleus [6] = tested on: micronucleus; set-up: method as in PMID 26443851; conditions: in vivo; cited from earlier work
pregnant female rats = tested on: pregnant female rats; set-up: method as in PMID 23287076, PMID 24994687; conditions: dosed to pregnant female rats; cited from earlier work
[7] = 100 mg/kg × 28 days, PO (suspension)

Papp A→B ([3]; A-B, Table 1, read-out: MDCK-MDR1 Papp (A-B)) | Compound | IC50 [1] | IC50 [2] | killing of worms after short exposure (B. malayi/pahangi worms) | Papp A→B [3] | Papp with Pgp efflux inhibitor GF-120918 (MDR1-MDCK monolayer) | adult worm reduction (Brugia pahangi; 100 mg/kg × 14 days, SC (suspension)) | adult worm reduction (Brugia pahangi; [7]) | animals with no worms (Brugia pahangi; [7]) | microsomal CLint [4] | embryotoxicity (rat whole embryo culture) | adult worm reduction (Brugia pahangi; 10 mg/kg × 5 days, SC) | animals with no worms (Brugia pahangi; 10 mg/kg × 5 days, SC) | micronucleus test result (micronucleus [5]) | micronucleus test result (micronucleus [6]) | embryotoxicity (pregnant female rats)
 | COC(=O)Nc1nc2cc(C(=O)NCc3ccc4c(c3)B(O)OC4(C)C)ccc2[nH]1 [8a] | 13000 nM | 300 nM | not effective in killing the worms | 0.8 ×10⁻⁶ cm/s | 2.7 × 10^–6 cm/s | 100% | 24% | 0% | < 4 µL/min/mg |  |  |  |  |  | 
15.6 ×10⁻⁶ cm/s | COC(=O)Nc1nc2cc(C(=O)c3ccc(F)cc3)ccc2[nH]1 [compound 1, Flubendazole, reference compound] | 670 nM | 4 nM | not effective in killing the worms |  |  |  |  |  |  | potentially embryotoxic | 100%/100% | 100%/100% | aneugen | aneugen | potentially embryotoxic

— article PMC7026885, “Macrofilaricidal Benzimidazole–Benzoxaborole Hybrids as an Approach to the Treatment of River Blindness: Part 1. Amide Linked Analogs” (ACS Infectious Diseases, 2019)
